Assay results: PubChem BioAssay AID624344 (Sanford-Burnham Center for Chemical Genomics, 2012)
Activity calls are given as the source filed them. No rule for the calls is given here.

Assays:
Cytotoxicity = experiment: inhibitors of PAF-induced NFkB signaling in CF airway cells, dose response, cell-based, uHTS hits, panel, cytotoxicity readout (AID 624344); conditions: CF bronchial epithelial cells, mean of runs
[1] = as above; conditions: CF bronchial epithelial cells, PAF-induced NFkB reporter inhibition; with PAF, mean of runs

SMILES | IC50 (Cytotoxicity) | IC50 [1]
C[C@H]1CCCC(=O)CCC/C=C/c2cc(O)cc(O)c2C(=O)O1 | 25.9 µM | 14 µM
C=CCN1c2ccccc2[C@]23C[C@@H](C(=O)OC)N(C(=O)c4ccc(Br)cc4)C2=NC(C(=O)OC)=C(C(=O)OC)[C@H]13 | 12.2 µM | 9.35 µM
COc1cccc(N2CCN(c3c(C#N)c(C(F)(F)F)nn3C)CC2)c1 | 58.4 µM (inactive) | 2.27 µM
CCOC(=O)c1c(C)[nH]c(C(=O)N/N=C/c2ccc(Br)cc2)c1C | 45.9 µM | 14.6 µM
O=c1c(O)c(-c2ccccc2)oc2cc(O)cc(O)c12 | 54 µM (inactive) | 3.27 µM
c1csc(Cc2nn3c(-c4ccncc4)nnc3s2)c1 | 57 µM (inactive) | 7.94 µM
FC(F)(F)c1nnc2c(Sc3ccccc3)nc3ccccc3n12 | 3.54 µM | 2.76 µM
CCN(CC)S(=O)(=O)c1ccc(NC(=O)Nc2cccc(C(F)(F)F)c2)cc1 | 12.2 µM | 6.03 µM
COCCCN=C1NN=C(c2cc(C)n(Cc3ccccc3Cl)c2C)CS1 | > 79 µM (inactive) | inactive
Cc1ccc2occ(/C=N/NC(=O)c3ccccc3Br)c(=O)c2c1 | 40.4 µM | 4.98 µM
Nc1nc(N)nc(-c2ccc(Cl)c(Cl)c2)n1 | 20.3 µM | 2.78 µM
O=C(c1[nH]c(C(F)(F)F)nc1-c1ccccc1)N1CCN(c2c(Cl)cncc2Cl)CC1 | > 79 µM (inactive) | 10.4 µM
C=CC(=O)Nc1cccc(Oc2ncnc3[nH]cc(-c4cnc5ccccc5c4)c23)c1 | 54.8 µM (inactive) | 1.35 µM
CCN1CCN(Cc2ccc(NC(=O)c3ccc(C)c(NC(=O)c4cc(-c5ccc(Br)cc5)n[nH]4)c3)cc2C(F)(F)F)CC1 | 42.5 µM | 2.77 µM
C=C1C(=O)OC2CC1C(O)CC(C)=CCCC(C)=CC(O)CC2C (configuration not stated) | 1.09 µM | 0.537 µM
CC(=O)Nc1nc(C)c(-c2csc(Nc3cccc(C(C)=O)c3)n2)s1 | 40.1 µM | 0.538 µM
Cc1ccc2[nH]cc(C(=O)CCl)c2c1 | 4.07 µM | 2.32 µM
O=C(CN1C(=O)CCC1=O)Nc1nc(-c2nc3ccccc3s2)cs1 | > 79 µM (inactive) | 4.92 µM
CCOC(=O)c1ccc(-n2[nH]c(-c3ccccc3)cc2=O)cc1 | 3.77 µM | 5.35 µM
Cc1cc(N2CCOCC2)c2c(N)c(Br)cc(C)c2n1 | 20 µM | 0.729 µM
Cc1ccc(Sc2c(C=O)c3ccccc3n2C)cc1 | 18 µM | 2 µM

SMILES | IC50 (Cytotoxicity) | IC50 [1]
CCCc1cc(-c2[nH]ncc2-c2ccc3c(c2)OCCCO3)c(O)cc1O | 25.9 µM | 8.75 µM
COc1ccc(-c2cc(=O)oc3c(C)c(OC(=O)c4cccs4)ccc23)cc1 | > 79 µM (inactive) | 1.6 µM
COc1ccc(-c2oc3ccc(-c4ccc(OC)nc4)cc3c2C#CC2(O)CCCCC2)cc1 | 14.4 µM | 6.05 µM
O=C1NCCc2c1[nH]c1c(Cl)ccc(Cl)c21 | 11 µM | 1.54 µM
Nc1ncc([N+](=O)[O-])c(N2CCCCCC2)n1 | > 79 µM (inactive) | 2.28 µM
CCCCCc1cc(O)c2c(C)cc(=O)oc2c1 | 7.62 µM | 4.83 µM
CC(=O)OC1(C)CC(C)C(=O)C(C(O)CC2CC(=O)NC(=O)C2)C1 (configuration not stated) | 0.177 µM | < 0.15 µM
COc1cc(/C=C2\SC(=O)N(CCNC(=O)c3sc4cc(F)ccc4c3Cl)C2=O)cc(OC)c1OC | 11.3 µM | 7.99 µM
CN1CCN(S(=O)(=O)c2ccc(Sc3nnnn3-c3ccccc3)c([N+](=O)[O-])c2)CC1 | 3.12 µM | 2.06 µM
COc1cccc(-c2nnc3n2N=C(C(C)(C)C)CS3)c1 | 11.4 µM | 0.442 µM
Cc1nc(N)c(C#N)c(-c2cccnc2)c1-c1ccccc1 | 62.9 µM (inactive) | 4.45 µM
COc1cc(C(=O)c2cc3c(cc2C)OCO3)cc(OC)c1OC | 44.5 µM | > 79 µM (inactive)
COc1cc2c(c(OC)c1O)-c1ccc(OC)c(=O)cc1C(NC(=O)C(F)(F)F)CC2 (configuration not stated) | > 79 µM (inactive) | > 79 µM (inactive)
c1cncc(-c2ccc3ncnc(NCc4ccc5c(c4)OCO5)c3c2)c1 | 6.65 µM | 6.5 µM
Cc1ccc(-c2onc3ccc(C(=O)/C=C/N(C)C)cc23)cc1 | 22.9 µM | 9.39 µM
Oc1ccc(Nc2ncnc3scc(-c4ccccc4)c23)cc1 | 48.7 µM | 12.6 µM
Cc1nc2sc(C(N)=O)c(N)c2c(C)c1CC(=O)c1ccccc1 | > 79 µM (inactive) | 10.7 µM
CCCCCCCCCc1nc2sc3c(c2c(=O)n1NC(=O)c1ccc([N+](=O)[O-])cc1)CC(C)(C)OC3 | 43.8 µM | 5.52 µM
Cc1cnc(NC(=O)CCCc2nc3ccccc3s2)s1 | 44.5 µM | 4.23 µM
O=C(Oc1ccc(F)cc1C(=O)/C=C/c1cccs1)c1cccc([N+](=O)[O-])c1 | > 79 µM (inactive) | inactive
C=C(C)[C@@H]1CC[C@]2(C(=O)O)CC[C@]3(C)[C@H](CC[C@@H]4[C@@]5(C)CC[C@H](O)C(C)(C)[C@@H]5CC[C@]43C)[C@@H]12 | 42.2 µM | inactive

SMILES | IC50 (Cytotoxicity) | IC50 [1]
CCN(CC)CCNC(=O)c1ccc(NC(=O)C2CCN(c3ncnc4sc(C)c(C)c34)CC2)cc1 | 16.1 µM | 6.33 µM
CC(C)OC(=O)c1cccc(C(=O)Nc2cccc(NC(=O)c3cccc(C(=O)OC(C)C)n3)n2)n1 | > 79 µM (inactive) | 4.5 µM
CN(CCC#N)C(=O)COC(=O)c1ccccc1C(=O)c1ccc(Cl)c([N+](=O)[O-])c1 | 16.5 µM | 5.31 µM
O=[N+]([O-])c1ccc(O)c(C2CCCCC2)c1 | 3.28 µM | 2.04 µM
COc1ccc(-c2csc(NC3OC(=O)c4c3ccc(OC)c4OC)n2)cc1OC (configuration not stated) | > 79 µM (inactive) | 3.12 µM
C[C@]12CCC(O)CC1CCC1C2CC[C@]2(C)C(c3cc(C(F)(F)F)n[nH]3)CCC12 (some centres not stated) | 5.25 µM | 1.92 µM
COc1ccc(-c2csc3ncnc(NCCO)c23)cc1 | 54 µM (inactive) | 1.85 µM
CC(=O)c1c(C)n(-c2ccc(C)cc2C)c2ccc(O)cc12 | > 79 µM (inactive) | 12.7 µM
O=C(NCCN1CCN(c2ccccc2)CC1)c1cccc(Br)c1 | 57.4 µM (inactive) | 18.9 µM
c1cncc(CNc2ncnc3ccc(-c4ccoc4)cc23)c1 | 50.1 µM (inactive) | 1.39 µM
O=C(Nc1cccc(Cl)c1)Nc1cc(S(=O)(=O)N2CCCCC2)ccc1Cl | 9.07 µM | 6.4 µM
Fc1ccc(-n2cc(-c3ccccc3)c3c(N4CCOCC4)ncnc32)cc1 | 8.13 µM | 3.21 µM
O=C(NCCC1=CCCCC1)c1coc(=O)c(Br)c1 | 10.7 µM | 3.01 µM
CCCc1nc(Cl)c(C#N)c2c1CCCC2 | 73 µM (inactive) | 4.3 µM
CC(C)C[C@@H](CN1CCCC1CN1C(=S)NC[C@@H]1Cc1ccc(O)cc1)N1C[C@H](Cc2ccc(O)cc2)N(CCc2ccccc2)C1=S (some centres not stated) | 18.2 µM | 10.9 µM
O=c1cc(-c2ccccc2Cl)oc2cc(O)cc(O)c12 | 55.8 µM (inactive) | 5.33 µM
COc1cc(O)cc2cc3c(c(O)c12)C(=O)CC(C)(O)O3 (configuration not stated) | 45.5 µM | 4.17 µM
CCCCCCCCCCCCCCC(O)C[N+](C)(CCO)CCO (configuration not stated) | 5.47 µM | 4.61 µM
Cc1ccc(NC(=O)c2nc[nH]c2C(=O)NCCCNC(=O)c2[nH]cnc2C(=O)Nc2ccc(C)cc2)cc1 | 14 µM | 3.82 µM
COc1ccc2c(c1)[nH]c1c(C)nccc12 | > 79 µM (inactive) | 3.77 µM
CCOc1ccc(C(C(=O)NC2CCCC2)N(C(=O)c2snc(C(N)=O)c2N)c2cccc(O)c2)cc1 (configuration not stated) | 7.27 µM | 4.37 µM

SMILES | IC50 (Cytotoxicity) | IC50 [1]
CC(=O)OCCN1c2ccccc2Sc2cnccc21 | 63.5 µM (inactive) | 4.33 µM
Cc1ccc(C)c(S(=O)(=O)N(C(=O)c2ccncc2)c2ccc(OC(=O)c3ccncc3)cc2)c1 | 26.2 µM | 2.37 µM
COc1ccc(-c2nc(N3CCOCC3)nc3n[nH]c(N)c23)cc1 | 9.47 µM | 6.92 µM
COc1cccc(-c2ccc3ncnc(NCc4ccc5c(c4)OCO5)c3c2)c1 | 18.1 µM | 1.61 µM
Cc1c(-c2ccccc2)oc2c(C(=O)N3CCN(c4ccc([N+](=O)[O-])cc4)CC3)cccc2c1=O | > 79 µM (inactive) | 0.854 µM
CS(=O)(=O)Nc1cccc(-c2cc(NC=O)c3ncc(-c4ccc(F)cc4)n3c2)c1 | 8.66 µM | 2.4 µM
Fc1ccc(Nc2ccnc(Nc3ccc(F)cc3)n2)cc1 | 14 µM | 7.91 µM
CCC(=O)Nc1nc(C)c(-c2csc(Nc3cccc(O)c3)n2)s1 | > 79 µM (inactive) | 3.06 µM
COc1ccc(CN2C[C@H]3CCCN3c3cc(Br)ccc3S2(=O)=O)cc1 | 61.7 µM (inactive) | 9.73 µM
C=CCSc1nsc(NC(=O)Nc2cccc(C(C)=O)c2)n1 | 6.08 µM | 1.44 µM
COCCN1Cc2cccc(C(=O)Nc3cccc(-c4nc5ccccc5[nH]4)c3)c2C1=O | 11.1 µM | 7.9 µM
Cc1ccc(C(=O)Nc2cccc(C(F)(F)F)c2)cc1NC(=O)c1nccnc1N | 9.52 µM | 8.15 µM
CCOC(=O)c1sc(NC(=O)c2cccc(S(=O)(=O)N3CCc4ccccc43)c2)c(C#N)c1C | 6.88 µM | 1.02 µM
O=C(c1nnsc1S(=O)(=O)c1ccc(Cl)cc1)N1CCOCC1 | 9.67 µM | 3.85 µM
COC(=O)c1c(C)n(-c2ccc(OC)cc2)c2ccc(O)cc12 | 42.2 µM | 2.37 µM
N#Cc1cccc(NC(=O)COC(=O)c2ccccc2C(=O)c2ccc(Cl)c([N+](=O)[O-])c2)c1 | 9.79 µM | 2.66 µM
COc1ccc(C[C@H]2NC[C@H](O)[C@H]2OC(C)=O)cc1 | 0.799 µM | 0.155 µM
Clc1ccc(CSc2nnc(-c3ccncc3)o2)cc1 | > 79 µM (inactive) | 5.92 µM
